Values of other authors in publication PMC13130965, “An Integrated Approach Combining Regulatory Tests in tg(cyp19a1b:GFP) Zebrafish Embryos to Assess Toxicity, Developmental Effects, and Estrogenic Activity of Chemicals: A Case Study with Bisphenol A Substitutes” (Environmental Science & Technology, 2026).

Conditions: ref Adamovsky et al.; cited from earlier work

Structure (SMILES): CC(C)(c1ccc(O)cc1)c1ccc(O)cc1 [BPA, 4-[2-(4-hydroxyphenyl)propan-2-yl] phenol]
- Log Kow: 3.32
